# Results published in the supplement of paper PMC11061612.
# Experiments:
# [1] = tested on: NCI-H2228 (Lung Adenocarcinoma); assay: combination Emax (second highest fraction inhibited in the dose matrix, 72 h); higher = more inhibition; extreme values may be limits of the assay
# Method in brief: (§1)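 Bliss excess equals the observed combination effect minus the expected value EA + EB − EA·EB, where EA and EB are the effects of each agent alone. Combination Emax is the second-highest inhibition within the matrix. Inhibition was scaled from CellTiter-Glo 2.0 luminescence, with 0 set by vehicle wells and 1 by blank wells, after 72 hours of two-drug dosing of cells plated in 1536-well plates.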
# [2] = tested on: GCT (Other Solid Carcinomas); assay: as above
# Method in brief: as §1
# [3] = tested on: A253 (Head and Neck Carcinoma); assay: as above
# Method in brief: as §1
# [4] = tested on: CAL-27 (Oral Cavity Carcinoma); assay: as above
# Method in brief: as §1
# [5] = tested on: Jurkat (T-Lymphoblastic Leukemia); assay: as above
# Method in brief: as §1
# AU565 (Breast Carcinoma) = assay: as above
# Method in brief: as §1
# NB13 (Neuroblastoma) = assay: as above
# Method in brief: as §1
# [6] = tested on: CESS (Acute Myeloid Leukemia); assay: as above
# Method in brief: as §1
# [7] = tested on: JHU-022 (Oral Cavity Carcinoma); assay: as above
# Method in brief: as §1
# WM1552C (Melanoma) = assay: as above
# Method in brief: as §1
# [8] = tested on: JIMT-1 (Breast Carcinoma); assay: as above
# Method in brief: as §1
# [9] = tested on: NCI-H2087 (Lung Adenocarcinoma); assay: as above
# Method in brief: as §1
# HCC70 (Breast Carcinoma) = assay: as above
# Method in brief: as §1
# [10] = tested on: NCI-H1651 (Lung Adenocarcinoma); assay: as above
# Method in brief: as §1
# [11] = tested on: 22RV1 (Prostate Carcinoma); assay: as above
# Method in brief: as §1
# [12] = tested on: SW620 (Colorectal Carcinoma); assay: Bliss excess, mean over the matrix (fraction); higher = more synergy
# Method in brief: as §1
# [13] = tested on: KYSE-140 (Esophageal Squamous Cell Carcinoma); assay: as above
# Method in brief: as §1
# [14] = tested on: SK-HEP-1 (Hepatocellular Carcinoma); assay: as above
# Method in brief: as §1
# [15] = tested on: huH-1 (Hepatocellular Carcinoma); assay: as above
# Method in brief: as §1
# 769-P (Kidney Carcinoma) = assay: as above
# Method in brief: as §1
Structure (SMILES),combination Emax [1],combination Emax [2],combination Emax [3],combination Emax [4],combination Emax [5],combination Emax (AU565 (Breast Carcinoma)),combination Emax (NB13 (Neuroblastoma)),combination Emax [6],combination Emax [7],combination Emax (WM1552C (Melanoma)),combination Emax [8],combination Emax [9],combination Emax (HCC70 (Breast Carcinoma)),combination Emax [10],combination Emax [11],Bliss excess [12],Bliss excess [13],Bliss excess [14],Bliss excess [15],Bliss excess (769-P (Kidney Carcinoma))
"CN(CCO)CC[C@H](CSc1ccccc1)Nc1ccc(S(=O)(=O)NC(=O)c2ccc(N3CCC([C@@H](O)c4ccccc4-c4ccc(Cl)cc4)CC3)cc2)cc1S(=O)(=O)C(F)(F)F [AZD4320] + CN(C)CCCOc1ccc(-c2ccc3ncc4c(c3c2)n(C2CCOCC2)c(=O)n4C)cn1 [AZD0156] (first compound max 1 µM, 7x7, partner max 1 µM)",0.278,0.239,0.173,0.158,0.478,0.253,1,0.333,0.102,0.163,0.171,0.321,0.281,0.0674,0.385,-0.029,-0.0257,0.0146,-0.0419,-0.0444
"CCN(CCO)CCCOc1ccc2c(Nc3cc(CC(=O)Nc4cccc(F)c4)[nH]n3)ncnc2c1 [AZD2811] + O=C(c1cc(Cc2n[nH]c(=O)c3ccccc23)ccc1F)N1CCN(C(=O)C2CC2)CC1 [Olaparib] (first compound max 1 µM, 7x7, partner max 10 µM)",0.268,0.328,0.25,0.778,0.384,0.214,0.626,0.513,0.271,0.377,0.0806,0.163,0.675,0.248,0.337,0.0318,0.0429,-0.0121,-0.0014,-0.018
"CS(=O)(=O)CCNCc1ccc(-c2ccc3ncnc(Nc4ccc(OCc5cccc(F)c5)c(Cl)c4)c3c2)o1 [Lapatinib] + C[C@@H](Oc1cc(-c2cnn(C3CCNCC3)c2)cnc1N)c1c(Cl)ccc(F)c1Cl [Crizotinib] (first compound max 10 µM, 7x7, partner max 10 µM)",0.769,0.903,0.907,0.958,0.947,0.959,0.949,0.896,0.943,0.921,0.851,0.395,0.685,0.566,0.706,-0.0736,-0.0083,-0.0259,-0.0577,-0.0331
"CCc1c2c(nc3ccc(O)cc13)-c1cc3c(c(=O)n1C2)COC(=O)[C@]3(O)CC [SN-38] + CN(C)CCCOc1ccc(-c2ccc3ncc4c(c3c2)n(C2CCOCC2)c(=O)n4C)cn1 [AZD0156] (first compound max 0.3 µM, 7x7, partner max 1 µM)",0.716,0.683,0.881,0.905,0.999,0.8,0.886,0.984,0.842,0.59,0.266,0.921,0.2,0.852,0.683,0.11,0.0176,0.0105,0.0502,0.018
"C[C@@H]1COCCN1c1cc(C2([S@](C)(=N)=O)CC2)nc(-c2ccnc3[nH]ccc23)n1 [AZD6738] + O=C(c1cc(Cc2n[nH]c(=O)c3ccccc23)ccc1F)N1CCN(C(=O)C2CC2)CC1 [Olaparib] (first compound max 10 µM, 7x7, partner max 10 µM)",0.523,0.392,0.806,0.793,0.965,0.449,0.947,0.864,0.563,0.679,0.598,0.534,0.722,0.729,0.631,0.0218,-0.0971,0.0248,-0.0162,-0.0656
"COc1nnc2ccc(N3CCC(c4ccc(OCCN5CCN(C)C(=O)[C@H]5C)cc4)CC3)nn12 [AZD5153] + C=CCn1c(=O)c2cnc(Nc3ccc(N4CCN(C)CC4)cc3)nc2n1-c1cccc(C(C)(C)O)n1 [AZD1775] (first compound max 1 µM, partner max 1 µM)",0.465,0.617,0.356,0.63,0.983,0.742,0.813,0.941,0.417,0.439,0.622,0.627,0.44,0.822,0.529,-0.0753,-0.0161,-0.0166,0.024,-0.0321
"CN(C)CCCOc1ccc(-c2ccc3ncc4c(c3c2)n(C2CCOCC2)c(=O)n4C)cn1 [AZD0156] + C[C@@H]1COCCN1C2=NC(=NC(=C2)C3(CC3)[S@](=N)(=O)C)C4=C5C=CNC5=NC=C4 [AZD6738] (first compound max 1 µM, 7x7, partner max 10 µM)",0.517,0.231,0.794,0.586,0.898,0.473,0.906,0.923,0.525,0.783,0.799,0.666,0.829,0.649,0.524,0.0308,0.0481,-0.0034,0.0019,0.0253
"Cc1c2c(nn1C)CSCc1cc(n(C)n1)CSc1cc(c3ccccc3c1)OCCCc1c(C(=O)O)n(C)c3c-2c(Cl)ccc13 [AZD5991] + C[C@@H](Nc1cc(F)cc(F)c1)c1cc(C(=O)N(C)C)cc2c(=O)cc(N3CCOCC3)oc12 [AZD8186] (first compound max 1 µM, 7x7, partner max 3 µM)",0.321,0.454,0.777,0.936,0.913,1,0.331,0.554,0.398,0.77,0.304,0.167,1,0.155,0.48,-0.0298,-0.0439,0.0175,-0.0024,-0.0256
"COc1cccc(OCCCN)c1-c1cc(Nc2cnc(C#N)cn2)n[nH]1 [Prexasertib] + Cc1cc2ncnn2cc1Nc1ncc2c(n1)n(C1CCOCC1)c(=O)n2C [AZD7648] (first compound max 1 µM, 7x7, partner max 10 µM)",0.682,0.36,0.782,0.426,1,0.745,0.919,0.971,0.634,0.763,0.864,0.801,0.922,0.787,0.575,-0.0177,-0.0066,-0.0416,-0.0226,-0.038
"CC1(C)CCC(CN2CCN(c3ccc(C(=O)NS(=O)(=O)c4ccc(NCC5CCOCC5)c([N+](=O)[O-])c4)c(Oc4cnc5[nH]ccc5c4)c3)CC2)=C(c2ccc(Cl)cc2)C1 [Venetoclax] + CCN(CCO)CCCOc1ccc2c(Nc3cc(CC(=O)Nc4cccc(F)c4)[nH]n3)ncnc2c1 [AZD2811] (first compound max 1 µM, 7x7, partner max 1 µM)",0.253,0.273,0.268,0.43,0.2,0.181,0.548,0.615,0.292,0.464,0.284,0.176,0.616,0.233,0.232,-0.0243,-0.0045,-0.0621,-0.0337,-0.0637
"Cc1c2c(nn1C)CSCc1cc(n(C)n1)CSc1cc(c3ccccc3c1)OCCCc1c(C(=O)O)n(C)c3c-2c(Cl)ccc13 [AZD5991] + C1CN(CCC1(C(=O)N[C@@H](CCO)C2=CC=C(C=C2)Cl)N)C3=NC=NC4=C3C=CN4 [Capivasertib] (first compound max 1 µM, 7x7, partner max 3 µM)",0.426,0.438,0.92,0.996,1,1,0.349,0.566,0.356,0.929,0.21,0.129,0.99,0.254,0.706,-0.0325,0.0196,0.0194,-0.0149,-0.0369
"CC1(C)CCC(CN2CCN(c3ccc(C(=O)NS(=O)(=O)c4ccc(NCC5CCOCC5)c([N+](=O)[O-])c4)c(Oc4cnc5[nH]ccc5c4)c3)CC2)=C(c2ccc(Cl)cc2)C1 [Venetoclax] + C[C@@H]1COCCN1C2=NC(=NC(=C2)C3(CC3)[S@](=N)(=O)C)C4=C5C=CNC5=NC=C4 [AZD6738] (first compound max 1 µM, 7x7, partner max 10 µM)",0.476,0.334,0.804,0.425,0.921,0.382,0.942,0.929,0.593,0.617,0.722,0.53,0.819,0.652,0.599,-0.0365,-0.0185,-0.0342,-0.045,-0.0067
